Among the data in PMC9607353, “Combined In Silico and In Vitro Evidence Supporting an Aurora A Kinase Inhibitory Role of the Anti-Viral Drug Rilpivirine and an Anti-Proliferative Influence on Cancer Cells” (Pharmaceuticals, 2022) are Ki values, retold here.

One may read the pKi as the negative decadic logarithm of the Ki, by convention in mol/L. Low readings indicate a high Ki, high ones a low Ki.

What all share (test): kinase activity assay (ADP-Glo or radioisotope-based), dose-response; Ki from IC50 by Cheng-Prusoff
Common to all, as to assay type: biochemical
Background: In ADP-Glo the light output rises with the ADP produced.

For test [1], the target named is PIM1 kinase (Homo sapiens, UniProt P11309).
The target of test [2] is T1, Aurora B kinase (Homo sapiens, UniProt Q96GD4).
T1 construct: gene AURKB

Test [3] concerns the target T2, Aurora A kinase (Homo sapiens, UniProt O14965).
T2 construct: gene AURKA
T2 sequence (O14965 1-403): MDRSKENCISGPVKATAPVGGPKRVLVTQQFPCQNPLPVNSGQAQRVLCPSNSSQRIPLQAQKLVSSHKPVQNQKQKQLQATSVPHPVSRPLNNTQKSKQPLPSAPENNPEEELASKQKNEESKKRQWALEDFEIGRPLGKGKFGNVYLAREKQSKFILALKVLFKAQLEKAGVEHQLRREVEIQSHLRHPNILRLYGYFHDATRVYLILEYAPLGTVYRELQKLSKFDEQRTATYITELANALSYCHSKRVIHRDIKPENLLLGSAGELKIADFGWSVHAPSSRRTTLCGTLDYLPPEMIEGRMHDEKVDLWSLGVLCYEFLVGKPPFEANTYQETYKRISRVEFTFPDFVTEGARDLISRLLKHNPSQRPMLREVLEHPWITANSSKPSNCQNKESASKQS

pKi: −log10 of the molar value.

Sequence of PIM1 kinase (P11309 whole entry): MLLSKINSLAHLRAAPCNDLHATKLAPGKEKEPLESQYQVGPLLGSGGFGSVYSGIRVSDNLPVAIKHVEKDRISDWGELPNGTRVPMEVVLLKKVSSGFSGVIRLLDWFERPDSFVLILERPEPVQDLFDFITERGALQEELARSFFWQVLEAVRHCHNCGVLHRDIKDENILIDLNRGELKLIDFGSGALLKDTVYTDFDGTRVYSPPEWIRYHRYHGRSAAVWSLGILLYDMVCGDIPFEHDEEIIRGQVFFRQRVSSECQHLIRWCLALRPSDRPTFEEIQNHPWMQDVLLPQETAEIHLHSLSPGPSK
T1 sequence (Q96GD4 whole entry): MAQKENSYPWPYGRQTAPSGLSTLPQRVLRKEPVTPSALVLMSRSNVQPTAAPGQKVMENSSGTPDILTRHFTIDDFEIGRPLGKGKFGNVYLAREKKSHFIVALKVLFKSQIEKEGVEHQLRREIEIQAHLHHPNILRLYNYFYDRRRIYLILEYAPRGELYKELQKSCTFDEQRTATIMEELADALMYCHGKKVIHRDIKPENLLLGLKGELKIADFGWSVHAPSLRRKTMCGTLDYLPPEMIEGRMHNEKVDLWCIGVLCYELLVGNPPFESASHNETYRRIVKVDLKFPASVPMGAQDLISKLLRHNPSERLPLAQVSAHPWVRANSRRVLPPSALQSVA

Consider `Cc1cc(/C=C/C#N)cc(C)c1Nc1ccnc(Nc2ccc(C#N)cc2)n1` [rilpivirine, 4-[[4-[[4-[(1E)-2-cyanoethenyl]-2,6-dimethylphenyl]amino]-2-pyrimidinyl]amino]benzonitrile], for which the negative logarithm of the Ki (pKi) was 6.28 in test [1], 5.74 in test [2] and 6.94 in test [3].
